The values below come from the METLIN SMRT retention time set (Domingo-Almenara et al. 2019).

Structures are written as SMILES.

A short description of the series: gradient 5% acetonitrile 3 min, to 50% in 2 min, to 85% in 15 min, held 3 min, 100 µL/min. Particulars: column: Zorbax Extend-C18 2.1 x 50 mm; eluents: water / acetonitrile, 0.1% formic acid. Summed up: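 Data were gathered over 3 months by HPLC coupled to a quadrupole time-of-flight mass spectrometer, operated in positive and negative ionization mode. Mixtures of ~100 pure standards ran on a Zorbax Extend-C18 column (2.1 × 50 mm, 1.8 μm) at 100 μL/min, with water and acetonitrile each containing 0.1% formic acid and dead and dwell volumes of 40 μL and 900 μL. Retention time was read from adduct peaks picked by computer and checked manually.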
The molecule `CCOC(=O)Cc1ccc(NC(=O)N2CCc3cn(CC)c4cccc(c34)C2)cc1` came in with an RP-LC retention time of 1020 s. To `Cn1c(C2CCN(C(=O)Nc3ccccc3Br)CC2)cc(=O)n2nccc12` belongs 654 s; to `CCc1nncn1C1CCN(S(=O)(=O)c2ccc(Cl)c(C)c2)CC1`, 716 s.

As to `CC1(C)CC(=O)c2c(O)cc(OCC(=O)N3CCN(c4ccc(Cl)cc4)CC3)cc2O1`, the RP-LC retention time was 1050 s. For `Cn1cc(-c2ccc3nnc(Sc4ccc5ncccc5c4)n3n2)cn1`, the RP-LC retention time turned out to be 661 s. Then `O=C(Cn1nc2c(cc1=O)CCCC2)N[C@@H](Cc1ccccc1)C(=O)O`, with 682 s; and `CCOC(=O)c1nc(N(CC)c2ccc(CC)cc2)c2ccccc2n1`, with 1130 s; and `COc1cc(OC)cc(-c2noc(-c3nnn(Cc4nc(-c5cccc(C)c5)oc4C)c3C)n2)c1`, with 1280 s. In the case of `CCc1ccc(S(=O)(=O)N2CCC(n3cnnc3CC)CC2)cc1`, the RP-LC retention time is 746 s.

Molecule `Cc1cnc(C2CN(Cc3ccc(F)cc3F)C2)n1Cc1cccnc1` yielded an RP-LC retention time of 544 s. Then `COc1ccc(CNC(=O)C2(C)CCN(C(=O)Nc3cccc(SC)c3)CC2)cc1`, with 845 s; and `CCCC(=O)N1CCc2c([nH]c3ccccc23)C1c1ccc(OCC)cc1` (centres undefined), with 1140 s; and `CCn1ccc(C(=O)Nc2cccc(OCc3nnc(-c4ccc(Cl)cc4)o3)c2)n1`, with 961 s. To `CCOc1ccccc1N1CCN(C(=O)C2CCCN(c3nccc4sc(C)cc34)C2)CC1` (centres undefined) belongs 713 s; to `Cc1ccc(CNS(=O)(=O)c2ccc(-c3c(C)noc3C)cc2)o1`, 893 s; to `CS(=O)(=O)N1CCCC(C(=O)NC2CCCC2)CCNC(=O)CC1` (centres undefined), 603 s. To `CCOC(=O)c1sc(NC(=O)c2cc(OC)ccc2OC)cc1C` belongs 1000 s; to `O=C1N(CN2CCN(c3ccccn3)CC2)c2ccccc2C12OCCCO2`, 572 s. Take `O=C(NCc1[nH]nc2ccccc12)c1ccc2c(c1)OCO2`: the RP-LC retention time was determined as 704 s.

As to `Cc1ccc(-n2nc(N3CCN(C(=O)Nc4cc(F)ccc4F)CC3)ccc2=O)cc1`, the RP-LC retention time was found to be 834 s.

`O=C(NCc1ccc(F)cc1)C1CC(=O)N(c2n[nH]c3cccc(F)c23)C1` (centres undefined) gave an RP-LC retention time of 707 s. Then `COc1ccc(CSc2nccc3c2ccn3CC(=O)NCc2ccco2)cc1`, with 686 s; and `Cc1nc2ccn(Cc3ccco3)c(=O)c2cc1C(=O)NC1CCCC1`, with 723 s. To `CCOC(=O)Cn1c(=O)c2c(nc3n2CC(C)CN3c2cc(C)cc(C)c2)n(C)c1=O` (centres undefined) belongs 1050 s. Take `O=C(Cn1ccn2nc(-c3ccc(F)cc3)c(CO)c2c1=O)Nc1cccc(Br)c1`: the RP-LC retention time worked out at 894 s.

In turn, `COc1ccc2c(c1)C1(CCN(C(=O)c3cccc(Br)c3)C1)C(=O)N2C` (centres undefined) yielded an RP-LC retention time of 845 s. The molecule `Cc1nc(N)sc1-c1ccnc(Nc2ccc(N3CCOCC3)cc2)n1` registered an RP-LC retention time of 624 s. To `Cc1cccc(Sc2nccnc2N2CCCC(C(=O)N3CCCC3)C2)c1` (centres undefined) belongs 1010 s; to `Cn1c(C(=O)N(CCc2ccccc2)Cc2ccccc2)cc2c(=O)n3ccccc3nc21`, 1030 s; to `COc1ccc(-c2nnc(-c3ccc(-n4ccnc4)nc3)o2)cc1`, 654 s.

For `CCN1C(=O)C(C)(C(=O)NCc2ccc(F)c(Cl)c2)Oc2cccnc21` (centres undefined), the RP-LC retention time was determined as 902 s. Then `CCOCCCNC(=O)N1CCN(c2nc3ccccc3n(Cc3ccccc3)c2=O)CC1`, with 914 s; and `Cc1ccc(CNC(=O)C2(C)Oc3cccnc3N(C)C2=O)o1` (centres undefined), with 740 s.

`CCCn1c(=O)sc2cc(S(=O)(=O)N3CCC(C(=O)N(CC)CC)CC3)ccc21` returned an RP-LC retention time of 881 s. To `COCCCNC(=O)c1nc2ccccn2c1-c1ccc(Cl)cc1` belongs 764 s; to `O=C(CSc1ccc(N2CCCC(C(=O)NC3CC3)C2)nn1)Nc1ccc2c(c1)CCC2` (centres undefined), 691 s; to `O=C(c1cc(F)ccc1F)N1CCN(c2cc(-c3ccc(F)cc3)[nH]n2)CC1`, 807 s. Then `CC(C)c1nc(-n2cccc2)sc1C(=O)NCc1ccccc1`, with 1140 s; and `CC(CC(=O)O)CC(=O)Nc1nc(-c2ccccc2)c(-c2ccccc2)s1` (centres undefined), with 927 s; and `COc1ccc(OC)c(S(=O)(=O)N2CCC(n3cnc4c(C)cccc4c3=O)CC2)c1`, with 918 s. Then `O=C(NC1CCCC1)C1CCCN(c2nnc3ccc(Cl)cn23)C1` (centres undefined), with 648 s.

Take `O=C(NCc1ccc2c(c1)N(C(=O)c1ccccc1)CC2)c1cccs1`: the RP-LC retention time was 814 s. To `CCCCNC(=O)C1CCCN(C(=O)c2cc(C)cc(C)c2)C1` (centres undefined) belongs 828 s.

With `COc1ccccc1CNC(=O)Cn1cc(C(=O)N2CCCC2)c(=O)c2ccc(C)nc21`, the RP-LC retention time stood at 681 s. To `CN1C(=O)COc2cc(-c3noc(C(=O)N4CCCCC4)n3)ccc21` belongs 841 s; to `Cc1ccc(S(=O)(=O)N2CC3CN(C(=O)COCc4ccccc4)CC(C2)O3)cc1`, 849 s.

In turn, `CCCCN1CN(c2ccc(C)cc2)c2ncccc2S1(=O)=O` registered an RP-LC retention time of 1110 s. Then `Cc1ccc(N2CCC(NC(=O)Nc3cccc(Br)c3)C2=O)cc1` (centres undefined), with 955 s.

In the case of `CCC(CC)C(=O)Nc1c(-c2ccc(OC)cc2)nc2cc(C)ccn12`, the RP-LC retention time was 672 s. Then `Cn1c(CCNC(=O)c2ccc(C(C)(C)C)cc2)nc2cccnc21`, with 705 s; and `COc1ccc(Cl)cc1NC(=O)N1CCC2(CC1)NC(=O)c1cc(C)ccc1N2C`, with 895 s.

As to `COc1ccc(CC(=O)N2CCN(c3cc(C)n4c(C)nnc4n3)CC2)cc1OC`, the RP-LC retention time came out at 578 s. In the case of `COc1ccc(S(=O)(=O)N2CCc3c(c(-c4nnc(-c5ccccc5F)o4)nn3C)C2)cc1`, the RP-LC retention time stood at 882 s.

`Cc1ccc(Nc2c(-c3ccc(C)cc3)nc3ccc(Cl)cn23)cc1` returned an RP-LC retention time of 890 s. The molecule `CN(C(=O)c1ccc(-c2cccc([N+](=O)[O-])c2)o1)C1CCS(=O)(=O)C1` (centres undefined) displayed an RP-LC retention time of 726 s. To `COc1ccc(N2CCN(C(=O)c3cc4cc5cc(OC)ccc5nc4o3)CC2)cc1` belongs 829 s. `Cc1nnc(N2CCCC(C(=O)NCCc3c[nH]c4ccccc34)C2)c2nn(-c3ccccc3)c(C)c12` (centres undefined): the RP-LC retention time is 706 s. With `CC(=O)NCc1nc(-c2ccc(S(=O)(=O)N3CCC(C(=O)N4CCCC4)CC3)cc2)no1`, the RP-LC retention time stood at 639 s. Then `Cc1ccc(Nc2cc(C)nc(N3CCN(C(=O)c4ccco4)CC3)n2)cc1`, with 590 s. Then `CCOc1ccc(NC(=O)NCCc2nc3cccnc3n2C2CCCC2)cc1`, with 721 s; and `CCC(C(=O)N1CCC(N2CCCCC2)CC1)n1nc(C)c2sc3ccccc3c2c1=O` (centres undefined), with 676 s. To `COc1ccc(-c2noc(C3CC(=O)N(c4ccc(F)cc4)C3)n2)cc1OC` (centres undefined) belongs 808 s; to `Cc1cc(NC(=O)Cn2cccc2-c2nc(-c3ccc4c(c3)OCO4)no2)n[nH]1`, 786 s. `COc1ccc(NC(=O)C2CCc3sc(C(=O)N4CCCC4)cc3C2)cc1OC` (centres undefined) came in with an RP-LC retention time of 680 s.

`Cc1ccc2[nH]cc(CCNC(=O)Cn3c4ccccc4c4cnn(C)c(=O)c43)c2c1`: the RP-LC retention time worked out at 839 s. Then `Cc1ccccc1CNC(=O)Cn1c(C)cc(-c2nnc(-c3ccccc3)o2)c1C`, with 957 s; and `Cc1ccc(CNC(=O)c2cc3n(n2)CC(C)(C(=O)NC2CCCCC2)N(C)C3=O)cc1` (centres undefined), with 605 s. To `Cn1ncc2c3ccccc3n(CCCC(=O)NCCN3CCCCC3)c2c1=O` belongs 618 s; to `Cc1nc(-c2cccnc2)nc2c1CCC(=O)N2CCN(C)C`, 503 s.

The molecule `Cc1c2cnn(CC(=O)NCc3ccc4c(c3)OCO4)c(=O)c2c(C)n1Cc1cccc(Cl)c1` gave an RP-LC retention time of 880 s.

As to `CCn1cc(C)c(C(=O)O)c1CC(=O)NCCCN1CCN(C)CC1`, the RP-LC retention time was 562 s. Molecule `O=C(COc1ccc(Cl)cc1)Nc1ccccc1NC(=O)c1cccs1` displayed an RP-LC retention time of 887 s. As to `Cc1nc(N2CCOCC2)cc(N2CCN(C(=O)c3cnn(-c4ccccc4)n3)CC2)n1`, the RP-LC retention time came out at 587 s. Then `COc1ccc(OC)c(CNC(=O)CCC(=O)N2CCCn3nc(-c4cccn4C)cc32)c1`, with 755 s; and `O=C(Cc1ccc(F)cc1)Nc1ccc2cn[nH]c2c1`, with 688 s; and `O=C(c1cn[nH]c1)N1CCC(c2nc(CCOCC3CC3)no2)C1` (centres undefined), with 626 s. Then `COc1ccc(N2CCN(CCCNC(=O)NC3COc4ccc(OC)cc4C3)CC2)cc1` (centres undefined), with 687 s; and `CC(=O)N(C)c1ccc(NC(=O)c2c(-c3ccccc3Cl)noc2C)cc1`, with 774 s; and `CC(C)C(=O)Nc1ccc(-n2cnc(C(=O)NCC3CCCO3)c2)nc1` (centres undefined), with 647 s.
